From publication PMC4220016, “The binding characteristics and orientation of a novel radioligand with distinct properties at 5-HT3A and 5-HT3AB receptors” (Neuropharmacology, 2014)

Columns and labels:
5-HT3A receptor L126C = molecular target: T1, 5-HT3A receptor L126C (Homo sapiens, UniProt P46098, L121C); assay: Saturation binding of [^3H]VUF10166 at 5-HT3A receptor mutant; conditions: L126C, Loop A; read-out: Kd (nM) Mean ± SEM
T1 construct: expressed in transfected cells; host or cells: HEK 293
Experimental: (§1) Mutagenesis was performed using the QuikChange method (Agilent Technologies Inc., California, USA) on human 5-HT3A cDNA (accession number: P46098) cloned into pcDNA3.1 (Invitrogen, Paisley, UK). Cysteine residues were substituted for amino acids throughout each of the binding loops A–E (Fig. 1). To facilitate comparisons with previous work, we use the numbering of the equivalent residues in the mouse 5-HT3A subunit; for human numbering 5 should be subtracted from each residue number.
All data were analysed using GraphPad Prism 4.03. […].

5-HT3A receptor D189C = molecular target: T2, 5-HT3A receptor D189C (Homo sapiens, UniProt P46098, D184C); assay: as above; conditions: Loop B, read-out: Kd (nM) Mean ± SEM
T2 construct: expressed in transfected cells; host or cells: HEK 293
Experimental: as §1
(§2) All data were analysed using GraphPad Prism 4.03.

5-HT3A receptor E129C = molecular target: T3, 5-HT3A receptor E129C (Homo sapiens, UniProt P46098, E124C); assay: as above; conditions: Loop A, read-out: Kd (nM) Mean ± SEM
T3 construct: expressed in transfected cells; host or cells: HEK 293
Experimental: as §1, §2

5-HT3A receptor E236C = molecular target: T4, 5-HT3A receptor E236C (Homo sapiens, UniProt P46098, E231C); assay: as above; conditions: Loop C, read-out: Kd (nM) Mean ± SEM
T4 construct: expressed in transfected cells; host or cells: HEK 293
Experimental: as §1, §2

5-HT3A receptor H185C = molecular target: T5, 5-HT3A receptor H185C (Homo sapiens, UniProt P46098, H180C); assay: as above; conditions: H185C, Loop B; read-out: Kd (nM) Mean ± SEM
T5 construct: expressed in transfected cells; host or cells: HEK 293
Experimental: as §1, §2

5-HT3A receptor I139C = molecular target: T6, 5-HT3A receptor I139C (Homo sapiens, UniProt P46098, I134C); assay: as above; conditions: I139C, Loop E; read-out: Kd (nM) Mean ± SEM
T6 construct: expressed in transfected cells; host or cells: HEK 293
Experimental: as §1, §2

5-HT3A receptor I71C = molecular target: T7, 5-HT3A receptor I71C (Homo sapiens, UniProt P46098, I66C); assay: as above; conditions: I71C; read-out: Kd (nM) Mean ± SEM
T7 construct: expressed in transfected cells; host or cells: HEK 293
Experimental: as §1, §2

5-HT3A receptor K112C = molecular target: T8, 5-HT3A receptor K112C (Homo sapiens, UniProt P46098, K107C); assay: as above; conditions: K112C; read-out: Kd (nM) Mean ± SEM
T8 construct: expressed in transfected cells; host or cells: HEK 293
Experimental: as §1, §2

5-HT3A receptor N128C = molecular target: T9, 5-HT3A receptor N128C (Homo sapiens, UniProt P46098, N123C); assay: as above; conditions: N128C, Loop A; read-out: Kd (nM) Mean ± SEM
T9 construct: expressed in transfected cells; host or cells: HEK 293
Experimental: as §1, §2

5-HT3A receptor N232C = molecular target: T10, 5-HT3A receptor N232C (Homo sapiens, UniProt P46098, N227C); assay: as above; conditions: N232C, Loop C; read-out: Kd (nM) Mean ± SEM
T10 construct: expressed in transfected cells; host or cells: HEK 293
Experimental: as §1, §2

5-HT3A receptor Q151C = molecular target: T11, 5-HT3A receptor Q151C (Homo sapiens, UniProt P46098, Q146C); assay: as above; conditions: Q151C, Loop E; read-out: Kd (nM) Mean ± SEM
T11 construct: expressed in transfected cells; host or cells: HEK 293
Experimental: as §1, §2

5-HT3A receptor R145C = molecular target: T12, 5-HT3A receptor R145C (Homo sapiens, UniProt P46098, R140C); assay: as above; conditions: R145C, Loop E; read-out: Kd (nM) Mean ± SEM
T12 construct: expressed in transfected cells; host or cells: HEK 293
Experimental: as §1, §2

5-HT3A receptor R58C = molecular target: T13, 5-HT3A receptor R58C (Homo sapiens, UniProt P46098, R53C); assay: as above; conditions: read-out: Kd (nM) Mean ± SEM
T13 construct: expressed in transfected cells; host or cells: HEK 293
Experimental: as §1, §2

5-HT3A receptor R92C = molecular target: T14, 5-HT3A receptor R92C (Homo sapiens, UniProt P46098, R87C); assay: as above; conditions: R92C, Loop D; read-out: Kd (nM) Mean ± SEM
T14 construct: expressed in transfected cells; host or cells: HEK 293
Experimental: as §1, §2

5-HT3A receptor S114C = molecular target: T15, 5-HT3A receptor S114C (Homo sapiens, UniProt P46098, S109C); assay: as above; conditions: S114C; read-out: Kd (nM) Mean ± SEM
T15 construct: expressed in transfected cells; host or cells: HEK 293
Experimental: as §1, §2

5-HT3A receptor T179C = molecular target: T16, 5-HT3A receptor T179C (Homo sapiens, UniProt P46098, T174C); assay: as above; conditions: Loop B, read-out: Kd (nM) Mean ± SEM
T16 construct: expressed in transfected cells; host or cells: HEK 293
Experimental: as §1, §2

5-HT3A receptor T181C = molecular target: T17, 5-HT3A receptor T181C (Homo sapiens, UniProt P46098, T176C/T181C); assay: as above; conditions: Loop B, read-out: Kd (nM) Mean ± SEM
T17 construct: expressed in transfected cells; host or cells: HEK 293
Experimental: as §1, §2

5-HT3A receptor W183C = molecular target: T18, 5-HT3A receptor W183C (Homo sapiens, UniProt P46098, W178C); assay: as above; conditions: Loop B, read-out: Kd (nM) Mean ± SEM
T18 construct: expressed in transfected cells; host or cells: HEK 293
Experimental: as §1, §2

5-HT3A receptor W90C = molecular target: T19, 5-HT3A receptor W90C (Homo sapiens, UniProt P46098, W85C); assay: as above; conditions: Loop D, read-out: Kd (nM) Mean ± SEM
T19 construct: expressed in transfected cells; host or cells: HEK 293
Experimental: as §1, §2

5-HT3A receptor Y141C = molecular target: T20, 5-HT3A receptor Y141C (Homo sapiens, UniProt P46098, Y136C); assay: as above; conditions: Loop E, read-out: Kd (nM) Mean ± SEM
T20 construct: expressed in transfected cells; host or cells: HEK 293
Experimental: as §1, §2

5-HT3A receptor Y143C = molecular target: T21, 5-HT3A receptor Y143C (Homo sapiens, UniProt P46098, Y138C); assay: as above; conditions: Loop E, read-out: Kd (nM) Mean ± SEM
T21 construct: expressed in transfected cells; host or cells: HEK 293
Experimental: as §1, §2

5-HT3A receptor Y234C = molecular target: T22, 5-HT3A receptor Y234C (Homo sapiens, UniProt P46098, Y229C); assay: as above; conditions: Loop C, read-out: Kd (nM) Mean ± SEM
T22 construct: expressed in transfected cells; host or cells: HEK 293
Experimental: as §1, §2

5-HT3A receptors = molecular target: T23, 5-HT3A receptors (Homo sapiens, UniProt P46098); assay: Kinetic measurements (association, dissociation) at 5-HT3A receptors; assay type: binding; parameters: expressed in transfected cells; host or cells: HEK 293; conditions: calculated from kinetic rates, Equ (4), read-out: Kd(nM) (kon/koff)
T23 sequence (P46098 24-478): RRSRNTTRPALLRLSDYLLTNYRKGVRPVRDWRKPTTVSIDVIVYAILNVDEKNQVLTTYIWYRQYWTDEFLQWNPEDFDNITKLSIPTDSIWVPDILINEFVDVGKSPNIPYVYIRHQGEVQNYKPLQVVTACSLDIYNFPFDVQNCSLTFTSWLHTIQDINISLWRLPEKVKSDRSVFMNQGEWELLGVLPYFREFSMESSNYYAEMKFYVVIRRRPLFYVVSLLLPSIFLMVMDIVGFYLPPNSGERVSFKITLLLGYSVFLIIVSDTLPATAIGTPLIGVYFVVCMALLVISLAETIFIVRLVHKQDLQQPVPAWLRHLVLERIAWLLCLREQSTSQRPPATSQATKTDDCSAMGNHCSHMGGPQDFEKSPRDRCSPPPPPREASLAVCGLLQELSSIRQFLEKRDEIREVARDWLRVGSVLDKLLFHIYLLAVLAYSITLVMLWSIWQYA

T8 sequence (P46098 24-478 K107C): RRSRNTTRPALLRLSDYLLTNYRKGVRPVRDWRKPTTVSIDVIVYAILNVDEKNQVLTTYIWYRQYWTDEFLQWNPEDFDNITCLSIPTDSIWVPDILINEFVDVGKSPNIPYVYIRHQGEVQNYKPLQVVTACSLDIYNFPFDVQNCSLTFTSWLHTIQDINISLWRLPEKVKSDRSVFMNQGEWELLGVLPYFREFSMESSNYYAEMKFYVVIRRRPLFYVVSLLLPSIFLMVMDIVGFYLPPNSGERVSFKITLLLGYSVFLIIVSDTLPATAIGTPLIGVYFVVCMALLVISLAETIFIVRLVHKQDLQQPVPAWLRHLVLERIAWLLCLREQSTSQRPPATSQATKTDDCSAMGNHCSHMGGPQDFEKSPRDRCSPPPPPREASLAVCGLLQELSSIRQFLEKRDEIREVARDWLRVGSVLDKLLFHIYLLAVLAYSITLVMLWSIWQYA
T7 sequence (P46098 24-478 I66C): as the sequence (P46098 24-478 K107C) above, with I43C, C84K counted along it
T2 sequence (P46098 24-478 D184C): as the sequence (P46098 24-478 K107C) above, with C84K, D161C counted along it
T3 sequence (P46098 24-478 E124C): as the sequence (P46098 24-478 K107C) above, with C84K, E101C counted along it
T21 sequence (P46098 24-478 Y138C): as the sequence (P46098 24-478 K107C) above, with C84K, Y115C counted along it
T17 sequence (P46098 24-478 T176C/T181C): as the sequence (P46098 24-478 K107C) above, with C84K, T153C, T158C counted along it
T12 sequence (P46098 24-478 R140C): as the sequence (P46098 24-478 K107C) above, with C84K, R117C counted along it
T16 sequence (P46098 24-478 T174C): as the sequence (P46098 24-478 K107C) above, with C84K, T151C counted along it
T1 sequence (P46098 24-478 L121C): as the sequence (P46098 24-478 K107C) above, with C84K, L98C counted along it
T9 sequence (P46098 24-478 N123C): as the sequence (P46098 24-478 K107C) above, with C84K, N100C counted along it
T11 sequence (P46098 24-478 Q146C): as the sequence (P46098 24-478 K107C) above, with C84K, Q123C counted along it
T22 sequence (P46098 24-478 Y229C): as the sequence (P46098 24-478 K107C) above, with C84K, Y206C counted along it
T14 sequence (P46098 24-478 R87C): as the sequence (P46098 24-478 K107C) above, with R64C, C84K counted along it
T6 sequence (P46098 24-478 I134C): as the sequence (P46098 24-478 K107C) above, with C84K, I111C counted along it
T19 sequence (P46098 24-478 W85C): as the sequence (P46098 24-478 K107C) above, with W62C, C84K counted along it
T4 sequence (P46098 24-478 E231C): as the sequence (P46098 24-478 K107C) above, with C84K, E208C counted along it
T5 sequence (P46098 24-478 H180C): as the sequence (P46098 24-478 K107C) above, with C84K, H157C counted along it
T10 sequence (P46098 24-478 N227C): as the sequence (P46098 24-478 K107C) above, with C84K, N204C counted along it
T13 sequence (P46098 24-478 R53C): as the sequence (P46098 24-478 K107C) above, with R30C, C84K counted along it
T18 sequence (P46098 24-478 W178C): as the sequence (P46098 24-478 K107C) above, with C84K, W155C counted along it
T15 sequence (P46098 24-478 S109C): as the sequence (P46098 24-478 K107C) above, with C84K, S86C counted along it
T20 sequence (P46098 24-478 Y136C): as the sequence (P46098 24-478 K107C) above, with C84K, Y113C counted along it

CN1CCN(c2nc3ccccc3nc2Cl)CC1 [[^3H]VUF10166] [2-chloro-3-(4-[^3H]methylpiperazin-1-yl)quinoxaline]
Kd (5-HT3A receptor L126C): 0.89 ± 0.19 nM
Kd (5-HT3A receptor D189C): > 10 nM
Kd (5-HT3A receptor E129C): > 10 nM
Kd (5-HT3A receptor E236C): > 10 nM
Kd (5-HT3A receptor H185C): 0.96 ± 0.39 nM
Kd (5-HT3A receptor I139C): 1.55 ± 0.15 nM
Kd (5-HT3A receptor I71C): 0.23 ± 0.05 nM
Kd (5-HT3A receptor K112C): 0.13 ± 0.03 nM
Kd (5-HT3A receptor N128C): 0.7 ± 0.1 nM
Kd (5-HT3A receptor N232C): 1.9 ± 0.36 nM
Kd (5-HT3A receptor Q151C): 1.82 ± 0.19 nM
Kd (5-HT3A receptor R145C): 0.96 ± 0.35 nM
Kd (5-HT3A receptor R58C): > 10 nM
Kd (5-HT3A receptor R92C): 0.88 ± 0.19 nM
Kd (5-HT3A receptor S114C): 0.21 ± 0.09 nM
Kd (5-HT3A receptor T179C): > 10 nM
Kd (5-HT3A receptor T181C): > 10 nM
Kd (5-HT3A receptor W183C): > 10 nM
Kd (5-HT3A receptor W90C): > 10 nM
Kd (5-HT3A receptor Y141C): > 10 nM
Kd (5-HT3A receptor Y143C): > 10 nM
Kd (5-HT3A receptor Y234C): > 10 nM
Kd (5-HT3A receptors): 0.16 nM
